Laboratory results taken from patent US7741495B2, “Indoline-sulfonamides compounds” (Taipei Medical University, priority 2006, dated 2010).
Structures can show the parent of a compound that is named as a salt.

SMILES	melting point [°C]
COc1ccc(S(=O)(=O)N2CCc3cccc(NC(=O)c4ccc([N+](=O)[O-])cc4)c32)cc1 [compound 22, N-[1-(4-Methoxy-benzenesulfonyl)-2,3-dihydro-1H-indol-7-yl]-4-nitro-benzamide]	151 to 152
COc1ccc(S(=O)(=O)N2CCc3cccc(NC(=O)N(C)c4ccccc4)c32)cc1 [compound 33, 3-[1-(4-Methoxy-benzenesulfonyl)-2,3-dihydro-1H-indol-7-yl]-1-methyl-1-phenyl-urea]	199 to 201
COc1ccc(S(=O)(=O)N2CCc3cccc(NC(=O)c4cccs4)c32)cc1 [compound 28, Thiophene-2-carboxylic acid [1-(4-methoxy-benzenesulfonyl)-2,3-dihydro-1H-indol-7-yl]-amide]	188 to 189
COc1ccc(S(=O)(=O)N2CCc3cccc(NS(=O)(=O)c4ccc(F)cc4)c32)cc1 [compound 31, 4-Fluoro-N-[1-(4-methoxy-benzenesulfonyl)-2,3-dihydro-1H-indol-7-yl]-benzenesulfonamide]	104 to 105
COc1ccc(S(=O)(=O)N2CCc3cc(Br)cc(NC(=O)c4ccncc4)c32)cc1 [compound 37, N-[5-Bromo-1-(4-methoxy-benzenesulfonyl)-2,3-dihydro-1H-indol-7-yl]-isonicotinamide]	191 to 192
COc1ccc(S(=O)(=O)N2CCc3cccc(NC(C)=O)c32)cc1 [compound 35, N-[1-(4-Methoxy-benzenesulfonyl)-2,3-dihydro-1H-indol-7-yl]acetamide]	154 to 155
COc1ccc(S(=O)(=O)N2CCc3cccc(NC(=O)Oc4ccccc4)c32)cc1	164 to 166
COc1ccc(S(=O)(=O)N2CCc3cccc(NCc4ccccc4)c32)cc1 [compound 34, Benzyl-[1-(4-methoxy-benzenesulfonyl)-2,3-dihydro-1H-indol-7-yl]-amine]	162 to 163
COc1ccc(S(=O)(=O)N2CCc3cccc(NC(=O)c4ccco4)c32)cc1 [compound 27, Furan-2-carboxylic acid [1-(4-methoxy-benzenesulfonyl)-2,3-dihydro-1H-indol-7-yl]-amide]	163 to 164
COc1ccc(S(=O)(=O)N2CCc3cccc(NC(=O)c4ccncc4)c32)cc1 (as salt: HCl) [compound 26, N-[1-(4-Methoxy-benzenesulfonyl)-2,3-dihydro-1H-indol-7-yl]-isonicotin amide]	219 to 220
COc1ccc(S(=O)(=O)N2CCc3cc(Br)cc(NC(=O)c4ccco4)c32)cc1 [compound 38, Furan-2-carboxylic acid [5-bromo-1-(4-methoxy-benzenesulfonyl) -2,3-dihydro-1H-indol-7-yl]-amide]	170 to 171
COc1ccc(S(=O)(=O)N2CCc3cccc(NS(=O)(=O)c4ccccc4)c32)cc1 [compound 29, N-[1-(4-Methoxy-benzenesulfonyl)-2,3-dihydro-1H-indol-7-yl]-benzenesulfonamide]	143 to 145
COc1ccc(S(=O)(=O)N2CCc3cccc(NC(=O)c4ccc(C#N)cc4)c32)cc1 [compound 23, 4-Cyano-N-[1-(4-methoxy-benzenesulfonyl)-2,3-dihydro-1H-indol-7-yl]-benzamide]	179 to 180
COc1ccc(S(=O)(=O)N2CCc3cccc(NC(=O)c4ccccc4)c32)cc1 [compound 20, N-[1-(4-Methoxy-benzenesulfonyl)-2,3-dihydro-1H-indol-7-yl]-benzamide]	205 to 206
COc1ccc(S(=O)(=O)N2CCc3cccc(NC(=O)c4ccc(F)cc4)c32)cc1 [compound 21, 4-Fluoro-N-[1-(4-methoxy-benzenesulfonyl)-2,3-dihydro-1H-indol-7-yl]-benzamide]	184 to 185
